In US4428952A, “Substituted pyrrolo[2,1-b]quinazolines and pyrido[2,1-b]quinazolines useful for the treatment of or the prevention of gastrointestinal ulcers” (Farmitalia Carlo Erba S.p.A., priority 1981, dated 1984):

Experiments:
[1] = acute toxicity (LD50), single administration of increasing doses; details: in vivo, po, mouse, per os, measured on the seventh day of treatment, read-out: approximate acute toxicity (LD50)
Description: In view of their high therapeutic index the compounds of the invention can be safely used in medicine. For example, the approximate acute toxicity (LD50) of the compounds 3-benzylidene-1,2,3,9-tetrahydro-9-oxo-pyrrolo[2,1-b]quinazoline-7-carboxylic acid; 3-benzylidene-1,2,3,9-tetrahydro-9-oxo-pyrrolo[2,1-b]quinazoline-6-carboxylic acid; 6-benzylidene-6,7,8,9-tetrahydro-11-oxo-11H-pyrido[2,1-b]quinazoline-2-carboxylic acid; 6-benzylidene-6,7,8,9-tetrahydro-11-oxo-11H-pyrido[2,1-b]quinazoline-3-carboxylic acid in mouse, determined with single administration of increasing doses and measured on the seventh day of treatment is per os higher than 800 mg/kg.

restraint ulcers = assay: inhibition of restraint ulcers in rats (Bonfils et al.); assay type: in vivo, rat (Sprague-Dawley male); details: po; rat, p.o. one hour before immobilization; approximate values; lesions counted 4 hours after immobilization; read-out: Anti-ulcerogenic activity ED50 p.o.
Method: The anti-ulcerogenic activity of the compounds of the invention is shown, e.g., by the fact that they are active in the test of the inhibition of restraint ulcers in rats, according to the method of Bonfils et al., (Therapie, 1960, 5, 1096; Jap. J. Pharmac. 1945, 43, 5).
The tested compound was administered per os (p.o.) one hour before the immobilization. Six Sprague-Dawley male rats (100-120 g) fasted 24 hours were used for the experiment: a square flexible small-mesh wire netting was used for the immobilization and 4 hours after the immobilization the rats were sacrificed, their stomachs were removed and the lesions counted under a dissecting microscope.

[2] = tested on: syndrome induced by oxotremorine; assay: antagonism against syndrome induced by oxotremorine in mice (Leszkovszky and Tardos); anticholinergic activity; assay type: in vivo, mouse; details: 100 mg/kg, oral administration
Description: Considering that many anti-ulcer agents display, as does atropine, a remarkable but undesired anti-cholinergic activity, the compounds of the invention have been assessed for their antagonism against syndrome induced by oxotremorine in mice, according to the method described by Leszkovszky G. P. and Tardos L. (Europ. J.Pharmac. 1971, 15, 310).

gastric secretion = assay: inhibition of gastric secretion in rats (H. Shay et al.); assay type: in vivo; details: Rattus norvegicus, intraduodenal administration, approximate value, read-out: antisecretory activity ED50

| SMILES | LD50 at 168 h [1] [mg/kg] | ED50 (restraint ulcers) [mg/kg] | antagonism against syndrome induced by oxotremorine [2] | ED50 (gastric secretion) [mg/kg] |
| --- | --- | --- | --- | --- |
| O=C(O)c1ccc2nc3n(c(=O)c2c1)CCC3=Cc1ccccc1 [3-benzylidene-1,2,3,9-tetrahydro-9-oxo-pyrrolo[2,1-b]quinazoline-7-carboxylic acid] | > 800 | ~8 | inactive | – |
| O=C(O)c1ccc2c(=O)n3c(nc2c1)C(=Cc1ccccc1)CCC3 [6-benzylidene-6,7,8,9-tetrahydro-11-oxo-11H-pyrido/2,1-b/quinazoline-3-carboxylic acid] | > 800 | ~8 | inactive | ~15 |
| O=C(O)c1ccc2nc3n(c(=O)c2c1)CCCC3=Cc1ccccc1 [6-benzylidene-6,7,8,9-tetrahydro-11-oxo-11H-pyrido[2,1-b]quinazoline-2-carboxylic acid] | > 800 | ~9 | inactive | – |
| O=C(O)c1ccc2c(=O)n3c(nc2c1)C(=Cc1ccccc1)CC3 [3-benzylidene-1,2,3,9-tetrahydro-9-oxo-pyrrolo[2,1-b]quinazoline-6-carboxylic acid] | > 800 | ~10 | inactive | – |
